From patent US20250222028A1, “ENGINEERED IMMUNE CELL PLATFORM” (Cancer Research Technology Limited, priority 2022, published 2025)

Tests used:
cytotoxic CD4+ T cells = experiment: Flow cytometric analysis of Granzyme B and IFNγ in cytotoxic CD4+ T cells; assay type: cell-based, mice; settings: 5 μM, 24 h
Method: FIG. 9. GzmB content and IFNγ secretion are unaffected by Gli inhibition in cytotoxic CD4+ T cells. Cytotoxic CD4+ cells were generated from OT-II mice and treated with 5 μM GANT61 or carrier control on day 7 for 24 h prior to flow cytometric analysis of Granzyme B (GzmB) and IFNγ levels on day 8. (A) Representative flow cytometry plots in unstimulated (top panel) or restimulated CD4+ T cells (bottom panel). (B) Quantification of steady state GzmB levels and IFNγ levels upon restimulation. Data is from n=3 independent experiments.
(§1) To investigate this further, the effect of GANT61 inhibition on Granzyme B and IFNγ secretion was investigated. Cytotoxic CD4+ cells were generated from OT-II mice and treated with 5 μM GANT61 or carrier control on day 7 for 24 h prior to flow cytometric analysis of Granzyme B (GzmB) and IFNγ levels on day 8. NK cells were isolated from C57BL/6 mice and treated with 10 μM GANT61 or carrier control (EtOH) overnight (˜18 hours) prior to analysis of intracellular granzyme B (GzmB) and IFNγ expression by flow cytometry. In both cytotoxic CD4+ cells (FIG. 9) and NK cells (FIG. 10), the GzmB content and IFNγ secretion were unaffected by Gli inhibition.

NK cells = experiment: Flow cytometric analysis of Granzyme B and IFNγ in NK cells; assay type: cell-based, mice; settings: 10 μM, overnight (~18 hours)
Method: FIG. 10. GzmB content and IFNγ secretion are unaffected by Gli inhibition in NK cells. NK cells were isolated from C57BL/6 mice and treated with 10 μM GANT61 or carrier control (EtOH) overnight (˜18 hours) prior to analysis of intracellular granzyme B (GzmB) and IFNγ expression by flow cytometry. (A) Representative flow cytometry plots. (B) Quantification of flow cytometry plots. Data is from n=2 mice, 1 independent experiment.
as §1

[1] = test system: B cells (as target cells); experiment: LDH assay, murine cytotoxic CD4+ T cells (OT-II) with B cells as target cells; assay type: cell-based; settings: 5 μM, 24 h prior to co-culture, vs carrier control
Method: FIG. 8. Gli1 mediates specific cell killing by murine cytotoxic CD4+ T cells. Cytotoxic CD4+ T cells were generated from OT-II mice and treated with 5 μM Gli1/Gli2 inhibitor GANT61 (grey) or carrier control (black) for 24 hours before an LDH assay was performed to assess specific cell killing. Data is from n=3 independent experiments.
Experiments 1, 2, 3 and 4 identify Gli1 transcription as a mediator of specific cell killing in CD8+ CTLs and in NK cells, in humans and in mice. To investigate whether Gli1 also plays a role in driving the effector function of CD4+ T cells, cells were isolated from the spleens of OT-II mice and CTLs were generated. Cells were treated using GANT61 at a concentration of 5 μM or carrier control, 24 h prior to being co-cultured with B cells (as target cells) at the effector:target ratios indicated in FIG. 8.

K562 target cells = experiment: Flow-cytometry based killing assay, human Vγ9Vδ2 gammadelta T cells with K562 target cells; assay type: cell-based; settings: pre-treated overnight with GANT61, co-culture 24 h
Method: FIG. 12. GLI1 is important for tumour cell killing of human Vγ9Vδ2 gammadelta T cells and treatment with L-type voltage gated Ca2+ channel agonist FPL 64176 increases killing capacity. PBMCs were isolated from Buffy Coats of healthy donors using SepMate PBMC Isolation Tubes. Vγ9Vδ2 expansion was induced by plating PBMCs at 1×10^6 concentration with 1 μM of Zoledronate in the presence of 100 IU/mL IL-2 and 120 IU/mL IL-15. Cells were split every 2-3 days from day 6 until day 20. Killing assays were conducted between day 16-20. (A) Vγ9Vδ2 T lymphocytes were incubated with Gli1/2 inhibitor GANT61 or EToH (carrier control) overnight and subsequently co-cultured with K562 target cells for 24 h at the indicated effector to target ratios and subjected to a flow-cytometry based killing assay. n=1 individual donor. (B) Vγ9Vδ2 cells were pre-incubated with 10 μM FPL 64176 or EToH (carrier control) before being co-cultured with K562 target cells at indicated effector to target ratios and subjected to a flowcytometric cytotoxicity assay in the presence of 10 μM FPL 64176 or EToH (carrier control). Killing was assessed after 24 hours. Tumour cell killing normalised to carrier treated cells at a 10:1 effector:target ratio. n=4 individual healthy donors from 2 independent experiments. […]

RMA/S tumour cells [2] = experiment: LDH killing assay, murine NK cells with NK-sensitive RMA/S cells; assay type: cell-based; settings: 5 μM GANT61 vs carrier control
Method: (§2) FIG. 4. Gli1 is important for specific tumour cell killing by murine NK cells. (A) NK cells were isolated from WT C57BL/6 mice and were treated using either the Gli1/Gli2 inhibitor GANT61 (squares) or carrier control (circles). LDH killing assays (left panel) and VITAL assays (right panel) were performed to assess specific cell killing of NK-sensitive RMA/S tumour cells. Left panel: Representative data of n=3 independent experiments. Right panel: data from 2 individual mice per genotype. (B) To specifically investigate the contribution of Gli1 towards NK cell effector function, LDH killing assays (left panel) and VITAL assays (right panel) were performed using NK cells isolated from both WT (circles) and Gli1 knockout (KO, squares) mice. Left panel: representative data from n=2 independent experiments. Right panel: data from 2 individual mice per genotype.
(§3) It was hypothesised that the therapeutic effect of L-type Cav channel agonists may be conserved between CD8+ T and NK cells. To investigate this hypothesis, NK cells were isolated from spleens of C57BL/6 wildtype mice using a MACS negative isolation protocol, and expanded in vitro for 7 days in the presence of 500 IU/L IL-2. […]

RMA/S tumour cells [3] = experiment: VITAL assay, murine NK cells with NK-sensitive RMA/S cells; assay type: cell-based; settings: 5 μM GANT61 vs carrier control
Method: as §2, §3

P815 target cells = assay type: cell-based, human
Method: FIG. 15. GLI inhibitor GANT61 reduces tumour cell killing of human CD8+ cytotoxic T lymphocytes. PBMCs were isolated from Buffy Coats of healthy donors using SepMate PBMC Isolation Tubes. CD8+ T cells were isolated using negative selection (Miltenyi Biotec, CD8+ T Cell Isolation Kit) and plated with ImmunoCult™ Human CD3/CD28/CD2 T Cell Activator at 25 μl/mL in TexMACS cell culture media supplemented with 1001 U/mL human IL-2 and 100 U/ml Penicillin/Streptomycin. Human CTLs were incubated with Gli1/2 inhibitor GANT61 or EToH (carrier control) overnight and subsequently co-cultured with anti-CD3ε pulsed P815 target cells for 3 h at the indicated effector to target ratios and subjected to an LDH cytotoxicity assay. (A) Representative graph, (B) Quantification of N=3 donors normalised to killing of carrier treated cells at a 10:1 effector:target ratio. Error bars indicate SD. n=3 donors from 2 independent experiments. It is also known that Hh signalling in murine CD8+ T cells is not inducible via administration of extracellular Hh ligands (de la Roche et al. (2013)). Instead, Hh induction occurs via the modulation of L-type voltage-gated calcium (Cav) channels downstream of the T cell receptor. For example, Hanna et al. (2021) report that nifedipine-sensitive Cavs control Gli1 induction in naïve CD8+ T cells and CD8+ CTLs following TCR stimulation. […]

Q: Which GzmB content (cytotoxic CD4+ T cells) does the source give for CN(C)c1ccccc1CN1CCCN(Cc2ccccc2N(C)C)C1c1ccncc1 [GANT61] here?
A: Its GzmB content is “unaffected”.

Q: What about the IFNγ secretion (cytotoxic CD4+ T cells) of the same compound?
A: Its IFNγ secretion is “unaffected”.

Q: And the GzmB content (NK cells)?
A: The GzmB content was “unaffected”.

Q: What about the IFNγ secretion (NK cells) of the same compound?
A: The IFNγ secretion was “unaffected”.

Q: And the “reduction in specific cell killing” value [1]?
A: Its value is 50%.

Q: And the “killing capacity of K562 target cells by gammadelta T cells” value (K562 target cells)?
A: Its value is “reduced killing capacity”.

Q: What about the “decrease in cell killing” value (RMA/S tumour cells [2]) of the same compound?
A: The value was roughly 15%.

Q: And the “specific tumour cell killing” value (RMA/S tumour cells [3])?
A: Its value is “greatly reduced”.

Q: What about the “tumour cell killing of human CD8+ cytotoxic lymphocytes” value (P815 target cells) of the same compound?
A: The value was “reduces”.
